Experiments:
hIL-6 mRNA = assay: Inhibition of hIL-6 mRNA transcription in LPS-stimulated U937 macrophages; type: cell-based, Human; settings: 1 h pretreatment, LPS 3 h; for IC50: Homo sapiens, U-937, PMA-differentiated U937 cells, read-out: IL-6 activity
Method in brief: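 PMA-differentiated U937 macrophages (60 ng/mL PMA, 3 days) pretreated 1 h with compound in 0.1% DMSO, then stimulated with 1 ug/mL E. coli LPS for 3 h at 37° C. IL-6 mRNA quantified by one-step TaqMan qRT-PCR, normalized to cyclophilin; fold expression relative to control, triplicate wells.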

Human AML MV-4-11 cells = assay: Inhibition of cell proliferation in MV4-11 cells (CellTiter Aqueous One); type: cell-based; settings: for IC50: MV4-11, 72 h
Method in brief: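 MV4-11 cells, 5×10^4 per well in IMDM with 10% FBS, were exposed to increasing compound concentrations or 0.1% DMSO for 72 h at 37 °C in triplicate. Viability was read by MTS (CellTiter Aqueous One) absorbance at 490 nm after 3-4 h. IC50 was derived from background-corrected signal relative to DMSO.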

[1] = system: c-myc in Human AML MV4-11 cells; assay: Inhibition of cMYC expression (mRNA, real-time PCR) in MV4-11 cells; type: cell-based; settings: 3 h treatment, cMYC mRNA by real-time PCR
Method in brief: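 MV4-11 cells in IMDM with 10% FBS were treated with increasing compound concentrations (DMSO 0.1%) for 3 h at 37 °C, in triplicate. Isolated mRNA was quantified by one-step TaqMan RT-qPCR, cMYC Ct normalized to cyclophilin, and fold expression given relative to DMSO control.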

[2] = molecular target: Brd4 bromodomain 1 (BRD4(1)) (Homo sapiens, UniProt O60885); assay: Inhibition of tetra-acetylated histone H4 binding to Brd4 bromodomain 1, measured by FRET (HTRF); design: made in house; host or cells: E. coli BL21(DE3); settings: 2 h at room temperature
Method in brief: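 Inhibition was read as a drop in 665 nm relative to 620 nm HTRF signal after 2 h at room temperature, with IC50 from dose-response curves in duplicate wells. Reactions held 200 nM E. coli-expressed His-tagged bromodomain and 25-50 nM biotinylated tetra-acetylated histone H4 peptide. Buffer was 30 mM HEPES pH 7.4 with KF, CHAPS, BSA and 0.2% DMSO.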

Compound | IL-6 activity (hIL-6 mRNA; PMA-differentiated U937 cells) | IC50 (Human AML MV-4-11 cells) [µM] | IC50 [1] [µM] | IC50 [2] [µM] | IC50 (hIL-6 mRNA) [µM] | Cell Proliferation activity (Human AML MV-4-11 cells; 72 h)
CNC(=O)c1onc(C)c1-c1cc(-c2c(C)noc2C)cc2[nH]c(C)nc12 [Example Compound 67, 4-(5-(3,5-dimethyl-isoxazol-4-yl)-2-methyl-1H-benzo[d]imidazol-7-yl)-N,3-dimethyl isoxazole-5-carboxamide] | Not active | 3 to 30 | 0.3 to 3 | ≤ 0.3 | – | –
Cc1nc2c(-c3ccccc3OC(F)(F)F)cc(-c3c(C)noc3C)cc2[nH]1 [Example Compound 77, 3,5-dimethyl-4-(2-methyl-4-(2-(trifluoro-methoxy)phenyl)-1H-benzo[d]imidazol-6-yl)isoxazole] | – | 0.3 to 3 | ≤ 0.3 | ≤ 0.3 | 0.3 to 3 | –
Cc1noc(C)c1-c1cc(-c2ccccc2CN(C)C)c2nc[nH]c2c1 [Example Compound 28, 1-(2-(6-(3,5-dimethyl-isoxazol-4-yl)-1H-benzo[d]imidazol-4-yl)phenyl)-N,N-dimethyl methanamine] | – | 0.3 to 3 | 0.3 to 3 | 0.3 to 3 | 0.3 to 3 | –
Cc1noc(C)c1-c1cc(-c2c(C)noc2C)c2nc(C3CCOCC3)[nH]c2c1 [Example Compound 228, 4,4′-(2-(tetrahydro-2H-pyran-4-yl)-1H-benzo[d]imidazole-4,6-dyl)bis(3,5-dimethylisoxazole)] | – | 0.3 to 3 | 0.3 to 3 | ≤ 0.3 | 0.3 to 3 | –
Cc1nc2c(-c3cccc4ccccc34)cc(-c3c(C)noc3C)cc2[nH]1 [Example Compound 138, 3,5-dimethyl-4-(2-methyl-4-(naphthalen-1-yl)-1H-benzo[d]imidazol-6-yl)isoxazole] | – | 0.3 to 3 | 0.3 to 3 | ≤ 0.3 | ≤ 0.3 | –
Cc1noc(C)c1-c1cc(NCCc2ccccc2)c2nc[nH]c2c1 [Example Compound 142, 6-(3,5-dimethyl-isoxazol-4-yl)-N-phenethyl-1H-benzo[d] imidazol-4-amine] | – | 0.3 to 3 | 0.3 to 3 | 0.3 to 3 | 0.3 to 3 | –
Cc1nc2c(-c3cnccc3C)cc(-c3c(C)noc3C)cc2[nH]1 [Example Compound 53, 3,5-dimethyl-4-(2-methyl-4-(4-methyl-pyridin-3-yl)-1H-benzo[d]imidazol-6-yl)isoxazole] | – | 0.3 to 3 | 0.3 to 3 | ≤ 0.3 | ≤ 0.3 | –
Cc1nn(C)cc1-c1cc(-c2c(C)noc2C)cc2cn[nH]c12 [Example Compound 120, 4-(7-(1,3-dimethyl-1H-pyrazol-4-yl)-1H-indazol-5-yl)-3,5-dimethyl isoxazole] | – | 0.3 to 3 | ≤ 0.3 | ≤ 0.3 | ≤ 0.3 | –
Cc1noc(C)c1-c1cc(Nc2ccccc2)c2nncn2c1 [Example Compound 15, 6-(3,5-dimethylisoxazol-4-yl)-N-phenyl-[1,2,4] triazolo[4,3-a]pyridin-8-amine] | – | – | 3 to 30 | ≤ 0.3 | 3 to 30 | Not active
CCOc1ncccc1-c1cc(-c2c(C)noc2C)cc2[nH]c(C)nc12 [Example Compound 109, 4-(4-(2-ethoxy-pyridin-3-yl)-2-methyl-1H-benzo[d]imidazol-6-yl)-3,5-dimethyl isoxazole] | – | 0.3 to 3 | 0.3 to 3 | ≤ 0.3 | ≤ 0.3 | –
Cc1noc(C)c1-c1cc(NCc2cccnc2)c2nc[nH]c2c1 [Example Compound 35, 6-(3,5-dimethyl-isoxazol-4-yl)-N-(pyridin-3-ylmethyl)-1H-benzo[d] imidazol-4-amine] | – | 0.3 to 3 | 0.3 to 3 | ≤ 0.3 | 0.3 to 3 | –
Cc1noc(C)c1-c1cc(-c2cccc(C(N)=O)c2C)c2nc(NC3CCOCC3)[nH]c2c1 [Example Compound 207, 3-(6-(3,5-dimethyl-isoxazol-4-yl)-2-((tetrahydro-2H-pyran-4-yl)amino)-1H-benzo[d]imidazol-4-yl)-2-methyl benzamide] | – | 0.3 to 3 | 0.3 to 3 | ≤ 0.3 | 0.3 to 3 | –
Cc1noc(C)c1-c1cc(Nc2cccc(F)c2)c2nc[nH]c2c1 [Example Compound 32, 6-(3,5-dimethyl-isoxazol-4-yl)-N-(3-fluorophenyl)-1H-benzo[d] imidazol-4-amine] | – | 0.3 to 3 | 0.3 to 3 | ≤ 0.3 | 0.3 to 3 | –
COc1c(-c2c(C)noc2C)cc2[nH]c(C)nc2c1-c1c(C)noc1C [Example Compound 227, 4,4′-(5-methoxy-2-methyl-1H-benzo[d]imidazole-4,6-diyl)bis(3,5-dimethylisoxazole)] | – | 3 to 30 | 0.3 to 3 | 0.3 to 3 | 0.3 to 3 | –
Cc1nc2c(-c3cnccn3)cc(-c3c(C)noc3C)cc2[nH]1 [Example Compound 85, 3,5-dimethyl-4-(2-methyl-4-(pyrazin-2-yl)-1H-benzo[d]imidazol-6-yl)isoxazole] | – | 3 to 30 | 3 to 30 | ≤ 0.3 | 0.3 to 3 | –
Cc1noc(C)c1-c1cc(NCc2ccccc2)c2nncn2c1 [Example Compound 24, N-benzyl-6-(3,5-dimethylisoxazol-4-yl)-[1,2,4]triazolo[4,3-o]pyridin-8-amine] | – | 3 to 30 | 0.3 to 3 | ≤ 0.3 | 0.3 to 3 | –
Cc1nn(C)cc1-c1cc(-c2c(C)noc2C)cc2[nH]cnc12 [Example Compound 18, 4-(4-(1,3-dimethyl-1H-pyrazol-4-yl)-1H-benzo [d]imidazol-6-yl)-3,5-dimethyl isoxazole] | – | 0.3 to 3 | 0.3 to 3 | ≤ 0.3 | ≤ 0.3 | –
Cc1noc(C)c1-c1cc(-c2c(C)noc2C)c2nc(N3CCOCC3)[nH]c2c1 [Example Compound 226, 4-(4,6-bis(3,5-dimethylisoxazol-4-yl)-1H-benzo[d]imidazol-2-yl)morpholine] | – | ≤ 0.3 | ≤ 0.3 | ≤ 0.3 | ≤ 0.3 | –
Cc1noc(C)c1-c1cc(-c2c(C)noc2C)c2nc(C(F)(F)F)[nH]c2c1 [Example Compound 34, 4,4′-(2-(trifluoromethyl)-1H-benzo[d]imidazole-4,6-diyl)bis(3,5-dimethylixaole)] | – | 0.3 to 3 | 0.3 to 3 | ≤ 0.3 | 0.3 to 3 | –
Cc1nc2c(-c3cccc(C)c3F)cc(-c3c(C)noc3C)cc2[nH]1 [Example Compound 106, 4-(4-(2-fluoro-3-methyl-phenyl)-2-methyl-1H-benzo[d]imidazol-6-yl)-3,5-dimethyl isoxazole] | – | 0.3 to 3 | 0.3 to 3 | ≤ 0.3 | 0.3 to 3 | –
COc1nc(C)ccc1-c1cc(-c2c(C)noc2C)cc2[nH]c(C)nc12 [Example Compound 135, 4-(4-(2-methoxy-6-methyl-pyridin-3-yl)-2-methyl-1H-benzo[d]imidazol-6-yl)-3,5-dimethyl isoxazole] | – | 0.3 to 3 | ≤ 0.3 | ≤ 0.3 | 0.3 to 3 | –
Cc1nc2c(-c3c(Cl)cncc3Cl)cc(-c3c(C)noc3C)cc2[nH]1 [Example Compound 130, 4-(4-(3,5-dichloro-pyridin-4-yl)-2-methyl-1H-benzo[d]imidazol-6-yl)-3,5-dimethyl isoxazole] | – | 0.3 to 3 | 0.3 to 3 | ≤ 0.3 | ≤ 0.3 | –
